Experimental data as given in patent publication US8415376B2, “Inhibitors of PI3 kinase” (Amgen Inc., priority 2008, dated 2013).

Key:
PI3Kα = biological target: T1, PI3Kα (Homo sapiens, UniProt P42336); assay: In vitro PI3 kinase enzyme assay (PI3K ATP loss), alpha; assay type: biochemical; conditions: average if run more than once; read-out: ATP Loss (PBKα) IC50 μM (Avg)
T1 construct: Full length p110 subunits of PI3K α, β and δ, N-terminally labeled with polyHis tag; polyHis (N); made in house; host or cells: Sf9 insect cells (baculovirus)
Description: (§1) Full length p110 subunits of PI3K α, β and δ, N-terminally labeled with polyHis tag, can be co-expressed with p85 with Baculo virus expression vectors in sf9 insect cells. P110/p85 heterodimers can be purified by sequential Ni-NTA, Q-HP, Superdex-100 chromatography. Purified α, β and δ isozymes can be stored at −20° C. in 20 mM Tris, pH 8, 0.2M NaCl, 50% glycerol, 5 mM DTT, 2 mM Na cholate. […] The γ isozyme can be purified by sequential Ni-NTA, Superdex-200, Q-HP chromatography. The γ isozyme can be stored frozen at −80° C. in NaH2PO4, pH 8, 0.2M NaCl, 1% ethylene glycol, 2 mM β-mercaptoethanol.
(§2) In Vitro PI3 Kinase Enzyme Assays (PI3K Atploss)
(§3) PI3K enzyme assays (alpha, beta, delta and gamma) can be performed in 25 μL with the above final concentrations of components in white polyproplyene plates. Phosphatidyl inositol phosphoacceptor, PtdIns(4,5)P2 (eg. P4508) can be obtained from Echelon Biosciences, Salt Lake City, Utah. […] Test compounds can be dissolved in DMSO and diluted with three-fold serial dilutions. The compound in DMSO (1 μL) may be added per test well, and the inhibition relative to reactions containing no compound, with and without enzyme can be determined After assay incubation at RT, the reaction can be stopped and residual ATP can be determined by addition of an equal volume of a commercial ATP bioluminescence kit (Perkin Elmer EasyLite, Perkin Elmer, Waltham, Mass.) according to the manufacturer's instructions, and detected using an Analyst GT luminometer.

PI3Kβ = biological target: T2, PI3Kβ (Homo sapiens, UniProt P42338); assay: In vitro PI3 kinase enzyme assay (PI3K ATP loss), beta; assay type: biochemical; conditions: average if run more than once
T2 construct: Full length p110 subunits of PI3K α, β and δ, N-terminally labeled with polyHis tag; polyHis (N); made in house; host or cells: Sf9 insect cells (baculovirus)
Description: as §1, §2, §3

[1] = test system: phosphorylation of Akt at Ser473; assay: Cell-based phospho-Akt Ser473 assay (HCT116 cell); conditions: HCT 116 human colon carcinoma cells, IGF-1 stimulated; average
Description: Cell-Based Phospho-Akt Ser473 Assay (HCT116 Cell)
This assay determines the ability of a compound to inhibit the phosphorylation of […] in Akt using a MSD based sandwich immunoassay (Meso Scale Detection, Meso Scale Discovery (MSD), Gaithersburg, Md.). HCT 116 human colon carcinoma cell lines can be grown in McCoy's 5A growth medium (GIBCO, Carlsbad, Calif.) containing 10% FBS (GIBCO, Carlsbad, Calif.) and X1 Penicillin-streptomycin-glutamine (GIBCO, Carlsbad, Calif.). Prior to the assay, cells can be detached from the culture flask with trypsin, and re-suspended in complete media to give a final concentration of 1.6×10^5 cells per mL. Aliquots (100 μl) of the HCT116 cell suspension can be seeded into each well of a 96 well tissue culture plate to give a final density of 16,000 cells per well. Cells can then be incubated overnight at 37° C.
The following day the cells can be treated with serially diluted test compounds and incubated for 2 hours at 37° C. The culture media on the HCT 116 cells can be replaced with 189 μL McCoys media, supplemented with 0.1% BSA (ICN Biomedicals, Inc., Costa Mesa, Calif.). Compounds can be prepared as either 10 mM or 0.5 mM stock solutions in DMSO, and serially diluted 3 fold in a 10-point dose-response curve to give final concentrations that are 200-fold greater than the desired final test concentration. Aliquots (1 μL) of serially-diluted compounds can be transferred to 96 well tissue culture plates containing the HCT 116 cells. […] As a maximum response control, wells can contain 0.5% DMSO in place of compound. The plates can be mixed at 700 rpm for 2 min to ensure even distribution of the test compound and incubated for 2 hours at 37° C. Cells can then be stimulated with insulin-like growth factor 1 (Sigma, St Louis, Mo.) at final concentration of 100 ng/ml for 15 minutes at 37° C. The media can then be removed and the cells treated with 80 μL cell-lysis buffer (MSD) containing a cocktail of protease and phosphatase inhibitors for one hour at 4° C.
25 μL Cell lysate can then be transferred to pre-blocked MSD assay plates pre-coated with a capture antibody specific for Akt, and the plates can be incubated for 2 hours at room temperature. The cell lysates can then be removed and plates can then be washed four times with 200 μl per well of Tris wash buffer (500 mM Tris, PH 7.5, 1.5 M NaCl, 0.2% Tween-20). Subsequently cells can be incubated for 1 hour at room temperature with a 25 μL solution containing the detection antibody, anti-phospho Akt (Ser 473) labeled with an electrochemiluminescent compound (Meso Scale Discovery SULPHO-TAG™ label, MSD, Gaithersburg, Md.). The detection antibody can be removed and plates can then be washed four times with 200 μL per well of Tris wash buffer. An aliquot of 150 μL of diluted MSD read buffer can then be applied to each well, and the electrochemiluminescent signal can be measured using a MSD SECTOR™ plate reader (Meso Scale Discovery, Gaithersburg, Md.). This instrument measures the intensity of emitted light to determine a quantitative measure of phosphorylated Akt in each well. The dose-response data obtained with each compound can be analyzed and the IC50 inhibition of Akt phosphorylation at Ser473 can be calculated.
Activity data for the compounds tested in the PI3K cell based Akt assay is provided in Table 1 under the column heading HCT116 Cell.

T2 sequence (P42338 whole entry): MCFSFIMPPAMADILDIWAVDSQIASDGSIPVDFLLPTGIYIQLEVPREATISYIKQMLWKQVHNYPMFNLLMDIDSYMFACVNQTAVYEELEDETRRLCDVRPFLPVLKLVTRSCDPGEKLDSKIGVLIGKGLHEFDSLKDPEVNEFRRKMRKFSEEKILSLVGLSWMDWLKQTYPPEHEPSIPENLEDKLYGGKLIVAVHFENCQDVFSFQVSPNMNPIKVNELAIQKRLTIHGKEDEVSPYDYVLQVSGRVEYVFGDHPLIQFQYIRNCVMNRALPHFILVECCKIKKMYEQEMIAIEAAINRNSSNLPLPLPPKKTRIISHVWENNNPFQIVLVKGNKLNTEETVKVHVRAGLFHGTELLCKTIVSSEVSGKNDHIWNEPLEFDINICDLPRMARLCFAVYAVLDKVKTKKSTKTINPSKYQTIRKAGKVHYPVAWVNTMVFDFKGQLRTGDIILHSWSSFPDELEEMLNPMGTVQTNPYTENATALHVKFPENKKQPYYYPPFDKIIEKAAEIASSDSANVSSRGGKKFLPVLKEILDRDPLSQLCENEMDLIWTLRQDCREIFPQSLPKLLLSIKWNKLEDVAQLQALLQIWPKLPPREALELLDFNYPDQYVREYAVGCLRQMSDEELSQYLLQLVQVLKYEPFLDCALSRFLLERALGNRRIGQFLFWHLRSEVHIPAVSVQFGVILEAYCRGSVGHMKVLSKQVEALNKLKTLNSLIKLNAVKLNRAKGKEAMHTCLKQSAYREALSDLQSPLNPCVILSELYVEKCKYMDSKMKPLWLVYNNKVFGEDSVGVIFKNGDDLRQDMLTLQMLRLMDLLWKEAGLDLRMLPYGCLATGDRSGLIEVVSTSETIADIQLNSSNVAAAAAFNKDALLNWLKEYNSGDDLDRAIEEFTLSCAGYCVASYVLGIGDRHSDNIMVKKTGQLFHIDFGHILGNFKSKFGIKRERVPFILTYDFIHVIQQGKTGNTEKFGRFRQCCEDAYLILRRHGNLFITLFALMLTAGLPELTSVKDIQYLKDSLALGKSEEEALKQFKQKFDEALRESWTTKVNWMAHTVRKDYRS
T2 sequence (P27986 whole entry partner): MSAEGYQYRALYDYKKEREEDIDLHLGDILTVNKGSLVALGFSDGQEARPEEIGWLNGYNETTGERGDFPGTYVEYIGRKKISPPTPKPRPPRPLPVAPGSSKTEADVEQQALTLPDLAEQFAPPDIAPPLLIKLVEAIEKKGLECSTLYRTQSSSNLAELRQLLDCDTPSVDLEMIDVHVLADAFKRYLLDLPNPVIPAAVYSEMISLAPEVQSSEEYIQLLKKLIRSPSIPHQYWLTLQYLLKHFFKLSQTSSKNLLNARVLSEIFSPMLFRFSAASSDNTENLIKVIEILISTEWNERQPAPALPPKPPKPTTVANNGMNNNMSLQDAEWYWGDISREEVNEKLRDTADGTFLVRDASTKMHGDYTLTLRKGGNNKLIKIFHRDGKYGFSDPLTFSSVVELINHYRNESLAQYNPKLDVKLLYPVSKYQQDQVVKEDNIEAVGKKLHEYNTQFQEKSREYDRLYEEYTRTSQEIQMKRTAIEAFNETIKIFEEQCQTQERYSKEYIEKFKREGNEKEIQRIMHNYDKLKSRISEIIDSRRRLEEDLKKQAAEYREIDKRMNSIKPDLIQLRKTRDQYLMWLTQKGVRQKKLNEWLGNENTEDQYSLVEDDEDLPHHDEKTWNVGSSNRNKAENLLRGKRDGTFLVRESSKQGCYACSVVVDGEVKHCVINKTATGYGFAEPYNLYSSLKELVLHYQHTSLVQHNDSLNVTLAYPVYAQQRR
T1 sequence (P42336 whole entry): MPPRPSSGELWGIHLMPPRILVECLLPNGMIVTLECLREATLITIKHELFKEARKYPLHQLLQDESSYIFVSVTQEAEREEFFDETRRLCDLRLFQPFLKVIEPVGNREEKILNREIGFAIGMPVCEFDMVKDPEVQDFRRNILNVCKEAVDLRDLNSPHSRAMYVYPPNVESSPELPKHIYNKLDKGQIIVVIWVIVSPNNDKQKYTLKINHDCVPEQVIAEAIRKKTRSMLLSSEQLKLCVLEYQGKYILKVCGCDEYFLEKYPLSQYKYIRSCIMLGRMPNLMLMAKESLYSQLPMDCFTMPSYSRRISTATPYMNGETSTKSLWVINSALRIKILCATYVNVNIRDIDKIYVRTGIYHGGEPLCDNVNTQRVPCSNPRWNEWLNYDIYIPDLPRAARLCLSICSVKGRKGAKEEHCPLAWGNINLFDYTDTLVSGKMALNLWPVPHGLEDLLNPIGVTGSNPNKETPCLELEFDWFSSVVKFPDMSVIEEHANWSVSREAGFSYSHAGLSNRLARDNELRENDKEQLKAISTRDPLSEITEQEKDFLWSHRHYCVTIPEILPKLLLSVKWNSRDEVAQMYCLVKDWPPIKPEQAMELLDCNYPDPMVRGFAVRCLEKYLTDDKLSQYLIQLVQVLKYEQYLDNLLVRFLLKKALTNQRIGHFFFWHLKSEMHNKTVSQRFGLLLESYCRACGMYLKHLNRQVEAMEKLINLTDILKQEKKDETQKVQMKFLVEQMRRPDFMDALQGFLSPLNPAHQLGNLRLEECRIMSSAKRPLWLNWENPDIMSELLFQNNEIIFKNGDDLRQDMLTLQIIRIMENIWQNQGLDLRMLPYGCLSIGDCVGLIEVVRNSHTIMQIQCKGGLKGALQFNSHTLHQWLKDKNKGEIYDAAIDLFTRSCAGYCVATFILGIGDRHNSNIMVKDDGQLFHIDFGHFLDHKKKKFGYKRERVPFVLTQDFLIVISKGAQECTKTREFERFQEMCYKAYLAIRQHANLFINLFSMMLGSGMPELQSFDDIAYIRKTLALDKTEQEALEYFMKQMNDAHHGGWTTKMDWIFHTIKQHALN
T1 sequence (P27986 whole entry partner): as the sequence (P27986 whole entry partner) above

Q: CC(C)(C)OC(=O)NCCOc1ccnc2ccc(-c3cnc(Cl)c(NS(=O)(=O)c4ccc(F)cc4)c3)cc12 [Example 3, tert-butyl(2-((6-(6-chloro-5-(((4-fluorophenyl)sulfonyl)amino)-3-pyridinyl)-4-quinolinyl)oxy)ethyl)carbamate] was tested. Which IC50 (PI3Kα) did it give?
A: 0.0678 µM

Q: And the IC50 (PI3Kβ)?
A: 0.682 µM

Q: And the IC50 [1]?
A: 1.66 µM

Q: With COc1cnc2ccc(-c3cnc(Cl)c(NS(=O)(=O)c4ccc(F)cc4)c3)cc2c1 [Example 4, N-(2-chloro-5-(3-methoxy-6-quinolinyl)-3-pyridinyl)-4-fluorobenzenesulfonamide] as the compound, how does the IC50 (PI3Kα) read?
A: 0.0162 µM

Q: What about the IC50 (PI3Kβ) of the same compound?
A: 0.0253 µM

Q: What about the IC50 [1] of the same compound?
A: 0.186 µM

Q: Which results are given for CS(=O)(=O)Nc1cc(-c2ccc3nccc(Oc4ccccc4)c3c2)cnc1Cl [Example 5, N-(2-chloro-5-(4-phenoxy-6-quinolinyl)-3-pyridinyl)methanesulfonamide]?
A: IC50 (PI3Kα): 0.255 µM; IC50 (PI3Kβ): 0.105 µM; IC50 [1]: 1.14 µM

Q: For O=S(=O)(Nc1cc(-c2ccc3ncccc3c2)cnc1Cl)c1ccc(F)cc1 [Example 7, N-(2-chloro-5-(6-quinolinyl)-3-pyridinyl)-4-fluorobenzenesulfonamide], which IC50 (PI3Kα) is on record?
A: 0.0099 µM

Q: What about the IC50 (PI3Kβ) of the same compound?
A: 0.0277 µM

Q: What about the IC50 [1] of the same compound?
A: 1.3 µM

Q: How did the IC50 (PI3Kα) turn out when COc1ccnc2ccc(-c3cnc(Cl)c(NS(=O)(=O)c4ccc(F)cc4)c3)cc12 [Example 8, N-(2-chloro-5-(4-methoxy-6-quinolinyl)-3-pyridinyl)-4-fluorobenzenesulfonamide] was run?
A: 0.0127 µM

Q: And the IC50 (PI3Kβ)?
A: 0.0147 µM

Q: And the IC50 [1]?
A: 0.222 µM

Q: CS(=O)(=O)Nc1cc(-c2ccc3nccc(Cl)c3c2)cnc1Cl [Example 9, N-(2-chloro-5-(4-chloro-6-quinolinyl)-3-pyridinyl)methanesulfonamide] was tested. Which IC50 (PI3Kα) did it give?
A: 0.0142 µM

Q: And the IC50 (PI3Kβ)?
A: 0.052 µM

Q: And the IC50 [1]?
A: 2.06 µM

Q: Which IC50 (PI3Kα) does the source give for COc1cnc2ccc(-c3cnc(Cl)c(NS(C)(=O)=O)c3)cc2c1 [Example 10, N-(2-chloro-5-(3-methoxy-6-quinolinyl)-3-pyridinyl)methanesulfonamide] here?
A: 0.0424 µM

Q: What about the IC50 (PI3Kβ) of the same compound?
A: 0.166 µM

Q: And the IC50 [1]?
A: 0.348 µM

Q: With CS(=O)(=O)Nc1cc(-c2ccc3nccc(N4CCOCC4)c3c2)cnc1Cl [Example 11, N-(2-chloro-5-(4-(4-morpholinyl)-6-quinolinyl)-3-pyridinyl)methanesulfonamide] as the compound, how does the IC50 (PI3Kα) read?
A: 0.0458 µM

Q: And the IC50 (PI3Kβ)?
A: 0.156 µM

Q: And the IC50 [1]?
A: 0.0501 µM

Q: Which IC50 (PI3Kα) does the source give for CS(=O)(=O)Nc1cc(-c2ccc3ncccc3c2)cnc1Cl [Example 12, N-(2-chloro-5-(6-quinolinyl)-3-pyridinyl)methanesulfonamide] here?
A: 0.0689 µM

Q: And the IC50 (PI3Kβ)?
A: 0.365 µM

Q: And the IC50 [1]?
A: 2.65 µM

Q: Which IC50 (PI3Kα) does the source give for CN(C)c1cc(-c2ccc3ncccc3c2)cnc1Cl [Example 13, 2-chloro-N,N-dimethyl-5-(6-quinolinyl)-3-pyridinamine] here?
A: 1.12 µM

Q: Which results are given for OCc1cc(-c2ccc3nccc(N4CCOCC4)c3c2)cnc1Cl [Example 14, (2-chloro-5-(4-(4-morpholinyl)-6-quinolinyl)-3-pyridinyl)methanol]?
A: IC50 (PI3Kα): 1.13 µM; IC50 (PI3Kβ): 5.42 µM

Q: What does the source list for CC(=O)OCc1cc(-c2ccc3nccc(N4CCOCC4)c3c2)cnc1Cl [Example 15, (2-chloro-5-(4-(4-morpholinyl)-6-quinolinyl)-3-pyridinyl)methyl acetate]?
A: IC50 (PI3Kα): 1.39 µM; IC50 (PI3Kβ): 3.67 µM

Q: For NCc1cc(-c2ccc3nccc(N4CCOCC4)c3c2)cnc1Cl [Example 16, 1-(2-chloro-5-(4-(4-morpholinyl)-6-quinolinyl)-3-pyridinyl)methanamine], which IC50 (PI3Kα) is on record?
A: 3.53 µM

Q: What about the IC50 (PI3Kβ) of the same compound?
A: 26.7 µM

Q: CC(C)(C)C(=O)NCc1cc(-c2ccc3nccc(N4CCOCC4)c3c2)cnc1Cl [Example 17, N-((2-chloro-5-(4-(4-morpholinyl)-6-quinolinyl)-3-pyridinyl)methyl)-2,2-dimethylpropanamide] was tested. Which IC50 (PI3Kα) did it give?
A: 3.11 µM

Q: And the IC50 (PI3Kβ)?
A: 27.4 µM

Q: What does the source list for O=S(=O)(Nc1cc(-c2ccc3cccnc3c2)cnc1Cl)c1ccc(F)cc1 [Example 18, N-(2-chloro-5-(7-quinolinyl)-3-pyridinyl)-4-fluorobenzenesulfonamide]?
A: IC50 (PI3Kα): 1.97 µM; IC50 (PI3Kβ): 7.7 µM

Q: What does the source list for Oc1cc(-c2ccc3nccc(N4CCOCC4)c3c2)cnc1Cl [Example 19, 2-chloro-5-(4-(4-morpholinyl)-6-quinolinyl)-3-pyridinol]?
A: IC50 (PI3Kα): 0.0258 µM; IC50 (PI3Kβ): 0.644 µM; IC50 [1]: 0.311 µM

Q: Which IC50 (PI3Kα) does the source give for CC(C)N1CCN(c2cnc3ccc(-c4cnc(Cl)c(NS(=O)(=O)c5ccc(F)cc5)c4)cc3n2)CC1 [Example 21, N-(2-chloro-5-(3-(4-(1-methylethyl)-1-piperazinyl)-6-quinoxalinyl)-3-pyridinyl)-4-fluorobenzenesulfonamide] here?
A: 0.0054 µM

Q: And the IC50 [1]?
A: 0.0115 µM

Q: For O=S(=O)(Nc1cc(-c2ccc3ncc(O)cc3c2)cnc1Cl)c1ccc(F)cc1 [Example 22, N-(2-chloro-5-(3-hydroxy-6-quinolinyl)-3-pyridinyl)-4-fluorobenzenesulfonamide], which IC50 (PI3Kα) is on record?
A: 0.0114 µM

Q: What about the IC50 (PI3Kβ) of the same compound?
A: 0.0552 µM

Q: And the IC50 [1]?
A: 0.654 µM

Q: Which results are given for O=S(=O)(Nc1cc(-c2ccc3nccc(N4CCC(O)C4)c3c2)cnc1Cl)c1ccc(F)cc1 (stereo not shown) [Example 26, N-(2-chloro-5-(4-(3-hydroxy-1-pyrrolidinyl)-6-quinolinyl)-3-pyridinyl)-4-fluorobenzenesulfonamide]?
A: IC50 (PI3Kα): 0.0111 µM; IC50 (PI3Kβ): 0.0778 µM; IC50 [1]: 2.96 µM

Q: Which IC50 (PI3Kα) does the source give for O=S(=O)(Nc1cc(-c2ccc3nccc(N4CCN(Cc5ccccc5)CC4)c3c2)cnc1Cl)c1ccc(F)cc1 [Example 28, N-(5-(4-(4-benzyl-1-piperazinyl)-6-quinolinyl)-2-chloro-3-pyridinyl)-4-fluorobenzenesulfonamide] here?
A: 0.0062 µM

Q: What about the IC50 (PI3Kβ) of the same compound?
A: 0.0339 µM

Q: With O=S(=O)(Nc1cc(-c2ccc3nnccc3c2)cnc1Cl)c1ccc(F)cc1 [Example 37, N-(2-chloro-5-(6-cinnolinyl)-3-pyridinyl)-4-fluorobenzenesulfonamide] as the compound, how does the IC50 (PI3Kα) read?
A: 0.0783 µM

Q: What about the IC50 (PI3Kβ) of the same compound?
A: 0.212 µM

Q: Which IC50 (PI3Kα) does the source give for O=S(=O)(Nc1cc(-c2cccc3cnncc23)cnc1Cl)c1ccc(F)cc1 [Example 39, N-(2-chloro-5-(5-phthalazinyl)-3-pyridinyl)-4-fluorobenzenesulfonamide] here?
A: 1.9 µM

Q: And the IC50 (PI3Kβ)?
A: 4.12 µM

Q: For O=S(=O)(Nc1cc(-c2ccc3cnncc3c2)cnc1Cl)c1ccc(F)cc1 [Example 40, N-(2-chloro-5-(6-phthalazinyl)-3-pyridinyl)-4-fluorobenzenesulfonamide], which IC50 (PI3Kα) is on record?
A: 0.899 µM

Q: And the IC50 (PI3Kβ)?
A: 0.698 µM

Q: O=S(=O)(Nc1cc(-c2cnc3ncccc3c2)cnc1Cl)c1ccc(F)cc1 [Example 44, N-(2-chloro-5-(1,8-naphthyridin-3-yl)-3-pyridinyl)-4-fluorobenzenesulfonamide] was tested. Which IC50 (PI3Kα) did it give?
A: 2.84 µM

Q: And the IC50 (PI3Kβ)?
A: 5.61 µM

Q: What does the source list for CNc1ccc2cc(-c3cnc(Cl)c(NS(=O)(=O)c4ccc(OC)cc4)c3)ccc2n1 [Example 48, N-(2-chloro-5-(2-(methylamino)-6-quinolinyl)-3-pyridinyl)-4-methoxybenzenesulfonamide]?
A: IC50 (PI3Kα): 0.0954 µM; IC50 (PI3Kβ): 2.49 µM

Q: CN(C)c1cc(-c2ccc3nccc(N4CCOCC4)c3c2)cnc1Cl [Example 51, 2-chloro-N,N-dimethyl-5-(4-(4-morpholinyl)-6-quinolinyl)-3-pyridinamine] was tested. Which IC50 (PI3Kα) did it give?
A: 0.179 µM

Q: What about the IC50 (PI3Kβ) of the same compound?
A: 2.46 µM

Q: CN(C)c1cc(-c2ccc3nccc(Cl)c3c2)cnc1Cl [Example 52, 2-chloro-5-(4-chloro-6-quinolinyl)-N,N-dimethyl-3-pyridinamine] was tested. Which IC50 (PI3Kα) did it give?
A: 0.43 µM

Q: What about the IC50 (PI3Kβ) of the same compound?
A: 2.24 µM

Q: CC(c1ccccc1)N1CCN(c2ccnc3ccc(-c4cnc(Cl)c(N(C)C)c4)cc23)CC1 (stereo not shown) [Example 53, 2-chloro-N,N-dimethyl-5-(4-(4-(1-phenylethyl)-1-piperazinyl)-6-quinolinyl)-3-pyridinamine] was tested. Which IC50 (PI3Kα) did it give?
A: 0.294 µM

Q: What about the IC50 (PI3Kβ) of the same compound?
A: 4.22 µM
